# From patent US4056625A, “Pesticidal compositions containing benzodioxole derivatives and methods of combating pests” (priority 1972, dated 1977)
# What was measured:
# Type in all cases: in vivo
# [1] = system: adult female yellow fever mosquitos (Aedes aegypti); test: Yellow fever mosquitos in coated glass tubes (Examples 61-64); conditions: 3 mg of active ingredient per square foot, after 24 hours
# Description: Acetone solutions of the compounds
# were applied to the inside walls of glass tubes 9 cm high by 4.5 cm diameter so that after the acetone had evaporated a coating equivalent to 3 mg of active ingredient per square foot remained. Batches of adult female yellow fever mosquitos (Aedes aegypti) were then caged in the tubes.
# [2] = system: adult female houseflies (Musca domestica); test: Housefly mortality on treated filter papers (Examples 32-40); conditions: 100 milligrams per square foot, after 24 hours
# Source text: 9 centimeter diameter filter papers treated with aqueous acetone solutions of each of the compounds
# at rates equivalent to 100 milligrams per square foot (100 mgm./0.09 m^2.) of active ingredient were placed in 9 centimeter diameter Petri dishes. Batches of adult female houseflies (Musca domestica) lightly anaesthetised with carbon dioxide were then introduced into the dishes and a glass lid placed over each.
# [3] = system: first instar larvae of the sheep blowfly (Lucilia sericata); test: Sheep blowfly larvae on treated cotton wool pads (Examples 53-60); conditions: 1/2 ml. of acetone solution on cotton wool pads, after 24 hours
# Description: Cylindrical pads of cotton wool, approximate diameter 1 cm., length 2 cms. were treated with 1/2 ml. of acetone solutions of the following carbamates:
# After leaving for 12 hours to dry, the pads were treated with 1 ml. of sheep blood serum and infested with 20 first instar larvae of the sheep blowfly (Lucilia sericata). After 24 hours, the blowflies were examined and found to be all dead; insects similarly infested on untreated pads were unaffected.
# [4] = system: second instar larvae of the cabbage white butterfly (Pieris brassicae); test: Cabbage white butterfly larvae on treated cabbage leaf discs (Examples 41-48); conditions: 10, 5, 1, 0.5 and 0.25 pounds per acre, three replications, after 48 hours
# Source text: 7 centimeter diameter circular discs of cabbage leaves were painted with 1 milliliter aqueous acetone solutions of each of the following compounds:
# in each case at concentrations equivalent to leaf applications of 10, 5, 1, 0.5 and 0.25 pounds per acre (11.2, 5.6, 1.12, 0.56 and 0.28 kg./hectare) of active ingredient. When the deposit on the leaf discs had dried, each leaf disc was placed in a 9 centimeter diameter Petri dish, infested with ten second instar larvae of the cabbage white butterfly (Pieris brassicae) and covered with a glass lid. Three replications were made with each compound at each concentration level.
# [5] = system: adult apterous vetch aphids (Megoura viciae); test: Vetch aphids on sprayed field beans (Examples 49 and 50); conditions: 100 parts per million, 50 gallons per acre, 24 hours
# Source text: Aqueous suspensions containing 100 parts per million of 2,2-dimethyl-1,3-benzodioxol-4-yl N-methylcarbamate and 2,2-dimethyl-1,3-benzodioxol-4-yl N-acetyl-N-methylcarbamate were sprayed at a rate equivalent to 50 gallons per acre (585 liters per hectare) on young field beans (Vicia faba) infested with adult apterous vetch aphids (Megoura viciae). After treatment the plants were enclosed in glass cages with gauze tops for ventilation.
# [6] = system: 2nd stage nymph of the German cockroach (Blattella germanica); test: LC50 against German cockroach nymphs in treated glass tubes (Example 69)
# Description: Compounds 2 and 4 and also 2,2-dimethyl-1,3- benzodioxol-4-yl N-methylcarbamate(compound 5) and 2,2-dimethyl-1,3-benzodioxol-4-yl N-acetyl-N-methylcarbamate (compound 6) were tested for activity against the 2nd stage nymph of the German cockroach (Blattella germanica), of the order Orthoptera, by treating the walls of glass tubes (9.0 cm high × 4.5 cm diameter) with acetone solutions of the compounds and after the acetone had evaporated caging the insects in the tubes for 48 hours. The highest dosage rate employed was 50 mg/ft^2 (532 mg/m^2).
# (§1) If complete kill was obtained at the highest dosage rate, the test was repeated using a logarithmically reducing dose regime until less than 50% mortality was recorded. The LC50 was then calculated from the line of best fit from the data plotted on log/provit analysis paper.
# The LC50 values are abbreviated on a 0-6 scale where
# [7] = system: adult female houseflies (Musca domestica); test: LC50 against adult female houseflies on filter papers (Example 70)
# Description: as §1
# (§2) Similarly LC50 values were obtained against various pests as described in Examples 70-73 where, however, the LC50 values are abbreviated on a 0-6 scale where
# LC50 values were obtained for each of Compounds 1, 2, 3, 4, 5 and 6 against adult female houseflies (Musca domestica), of the order Diptera. The tests were carried out by adding acetone solutions of the compounds to 9 cm diameter filter papers in the base of 9 cm diameter crystallising dishes, placing the houseflies in the dishes after the acetone had evaporated, closing the dishes with Petri dish lids and counting the mortality after 24 hours. The highest dosage rate employed was 1000 mg/ft^2 (10.65 g/m^2).
# [8] = system: larvae of the sheep maggot fly (Lucilia sericata); test: LC50 against sheep maggot fly larvae on dental rolls (Example 71)
# Description: as §1, §2
# Similarly, LC50 values were obtained for each of Compounds 1, 2, 3, 4, 5 and 6 against larvae of the sheep maggot fly (Lucilia sericata), of the order Diptera. The tests were carried out by placing newly hatched larvae on dental rolls contained in glass vials and soaked with 1 ml of blood serum containing the compound. The mortality was assessed after 24 hours. The highest dosage rate employed was 1000 ppm.
# [9] = system: adult red spider mites (Tetranychus telarius); test: LC50 against adult red spider mites on sprayed French beans (Example 73); conditions: 48 h, read-out: LC50 value
# Description: as §1, §2
# Similarly, LC50 values were obtained for each of Compounds 1, 2, 4, 5 and 6 against adult red spider mites (Tetranychus telarius), of the order Acarina. The tests were carried out by spraying infected French beans with a 50% acetone water solution of the compound, containing 500 ppm of Lissapol NX as a wetting agent, and recording the mortality after 48 hours. The highest dosage rate employed was 1000 ppm which is equivalent to 10 lb/acre (11.20 kg/ha).
# [10] = system: German cockroaches (Blattella germanica); test: Persistency against German cockroaches on treated glass plates (Example 74); conditions: 100 mg/ft^2 (1.065 g/m^2), 2nd stage nymphs, 7 day intervals until less than 50% mortality
# Description: Persistency was measured against German cockroaches (Blattella germanica), or the order Orthoptera, by treating glass plates with acetone solutions of the compunds listed below to produce a deposit equivalent to 100 mg/ft^2 (1.065 g/m^2), and caging 2nd stage nymph cockroaches on these surfaces for 48 hours at 7 day intervals until less than 50% mortality was recorded.
# [11] = system: yellow fever mosquito (Aedes aegypti); test: Persistency against yellow fever mosquito on treated glass plates (Example 75); conditions: 100 mg/ft^2 (1.065 g/m^2), adult female mosquitos, 7 day intervals until less than 50% mortality
# Description: Persistency was measured against yellow fever mosquito (Aedes aegypti), of the order Diptera, by treating glass plates with acetone solutions of the compounds listed below to produce a deposit equivalent to 100 mg/ft^2 (1.065 g/m^2), and caging adult female mosquitos on these surfaces for 24 hours at 7 day intervals until less than 50% mortality was recorded.
# [12] = system: first stage larvae of the cattle tick, Boophilus microplus; test: Cattle tick larvae in treated filter paper packets (Example 65); conditions: 30 parts per million, 25° C, 24 hours
# Description: Filter papers, diameter 9 cm., were treated with 1 ml. of acetone solutions containing 30 parts per million of 2,2-dimethyl-1,3-benzodioxol-4-yl N-methylcarbamate or 7-chloro-2,2-dimethyl-1,3-benzodioxol-4-yl N-methylcarbamate. When they had dried, they were folded into quadrant shaped packets, infested with 20 first stage larvae of the cattle tick, Boophilus microplus, closed with a metal clip and kept at 25° C for 24 hours.
structure (smiles),measurement,setting,value
"CC(=O)N(C)C(=O)Oc1cccc2c1OC(C)(C(C)(C)C)O2 (centres unmarked) [2-methyl-2-t-butyl-1,3-benzodioxol-4-yl N-acetyl-N-methylcarbamate]",mortality of yellow fever mosquitos,[1],all found to be dead
"CCCC(=O)N(C)C(=O)Oc1cccc2c1OCO2 [1,3-benzodioxol-4-yl N-butyryl-N-methylcarbamate]",mortality of houseflies,[2],all found to be dead
"CNC(=O)Oc1cccc2c1OC(C)O2 (centres unmarked) [2-methyl-1,3-benzodioxol-4-yl N-methylcarbamate]",mortality of sheep blowfly larvae,[3],all dead
"CC(=O)N(C)C(=O)Oc1cccc2c1OC(C)(C)O2 [Compound 6, 2,2-dimethyl-1,3-benzodioxol-4-yl N-acetyl-N-methylcarbamate]",mortality of houseflies,[2],all found to be dead
same,mortality of cabbage white butterfly larvae,[4],all found to be dead
same,kill of vetch aphids,[5],complete kill of the aphids in 24 hours
same,LC50 value,"[6]; 2nd stage nymph German cockroach, 48 hours, 0-6 scale",1 (15-50 mg/ft^2 (160-532 mg/m^2))
same,activity against cockroaches (in words),[6]; cockroaches,low activity against cockroaches
same,LC50 value,"[7]; adult female houseflies, 24 hours, 0-6 scale (mg/ft^2)",3 (30-99 mg/ft^2 (0.32 - 1.06 g/m^2))
same,activity against houseflies (in words),[7]; compared with compound 5,worse
same,LC50,"[8]; Lucilia sericata, 24 h, read-out: LC50 value",30 to 99 µg/mL
same,activity against sheep maggot fly (in words),[8]; compared with compound 5,worse
same,LC50,[9],100 to 299 µg/mL
same,Persistency,[10],8 to 14 days
same,Persistency,[11],15 to 21 days
"C=CCNC(=O)Oc1cccc2c1OC(C)(C)O2 [2,2-dimethyl-1,3-benzodioxol-4-yl N-allylcarbamate]",mortality of cabbage white butterfly larvae,[4],all found to be dead
"C=CCN(C(C)=O)C(=O)Oc1cccc2c1OC(C)(C)O2 [2,2-dimethyl-1,3-benzodioxol-4-yl N-acetyl-N-allylcarbamate]",mortality of houseflies,[2],all found to be dead
"CNC(=O)Oc1cccc2c1OC(C)(C(C)(C)C)O2 (centres unmarked) [2-tert-butyl-2-methyl-1,3-benzodioxol-4-yl N-methylcarbamate]",mortality of sheep blowfly larvae,[3],all dead
"CNC(=O)Oc1cc(C)cc2c1OC(C)(C)O2 [2,2,6-trimethyl-1,3-benzodioxol-4-yl N-methylcarbamate]",mortality of sheep blowfly larvae,[3],all dead
"CC(=O)N(C)C(=O)Oc1cc(C)cc2c1OC(C)(C)O2 [2,2,6-trimethyl-1,3-benzodioxol-4-yl N-acetyl-N-methylcarbamate]",mortality of houseflies,[2],all found to be dead
"CNC(=O)Oc1ccc(C)c2c1OC(C)(C)O2 [2,2,7-trimethyl-1,3-benzodioxol-4-yl N-methylcarbamate]",mortality of cabbage white butterfly larvae,[4],all found to be dead
same,mortality of sheep blowfly larvae,[3],all dead
"CNC(=O)Oc1ccc(Cl)c2c1OC(C)(C)O2 [7-chloro-2,2-dimethyl-1,3-benzodioxol-4-yl N-methylcarbamate]",mortality of cattle tick larvae,[12],all the ticks in the treated filter papers were dead
"CCC1(C)Oc2cccc(OC(=O)NC)c2O1 (centres unmarked) [2-ethyl-2-methyl-1,3-benzodioxol-4-yl N-methylcarbamate]",mortality of cabbage white butterfly larvae,[4],all found to be dead
same,mortality of sheep blowfly larvae,[3],all dead
"CC(=O)N(C)C(=O)Oc1cccc2c1OC1(CCCCC1)O2 [2,2-pentamethylene-1,3-benzodioxol-4-yl N-acetyl-N-methylcarbamate]",mortality of yellow fever mosquitos,[1],all found to be dead
"CNC(=O)Oc1cccc2c1OC1(CCCC1)O2 [2,2-tetramethylene-1,3-benzodioxol-4-yl N-methylcarbamate]",mortality of cabbage white butterfly larvae,[4],all found to be dead
"CCc1ccc(OC(=O)NC)c2c1OC(C)(C)O2 [7-ethyl-2,2-dimethyl-1,3-benzodioxol-4-yl N-methylcarbamate]",mortality of sheep blowfly larvae,[3],all dead
"CCC1(CC)Oc2cccc(OC(=O)NC)c2O1 [2,2-diethyl-1,3-benzodioxol-4-yl N-methylcarbamate]",mortality of sheep blowfly larvae,[3],all dead
"C#CCNC(=O)Oc1cccc2c1OC(C)(C)O2 [2,2-dimethyl-1,3-benzodioxol-4-yl N-propargylcarbamate]",mortality of cabbage white butterfly larvae,[4],all found to be dead
"CCC1(CC)Oc2cccc(OC(=O)N(C)C(C)=O)c2O1 [2,2-diethyl-1,3-benzodioxol-4-yl N-acetyl-N-methylcarbamate]",mortality of yellow fever mosquitos,[1],all found to be dead
"CC(=O)N(C)C(=O)Oc1cccc2c1OC(C)O2 (centres unmarked) [2-methyl-1,3-benzodioxol-4-yl N-acetyl-N-methylcarbamate]",mortality of houseflies,[2],all found to be dead
"C#CCN(C(C)=O)C(=O)Oc1cccc2c1OC(C)(C)O2 [2,2-dimethyl-1,3-benzodioxol-4-yl N-acetyl-N-propargylcarbamate]",mortality of cabbage white butterfly larvae,[4],all found to be dead
"CC(=O)N(C)C(=O)Oc1cccc2c1OC1(CCCC1)O2 [2,2-tetramethylene-1,3-benzodioxol-4-yl N-acetyl-N-methylcarbamate]",mortality of yellow fever mosquitos,[1],all found to be dead
"CNC(=O)Oc1cccc2c1OCO2 [1,3-benzodioxol-4-yl N-methylcarbamate]",mortality of houseflies,[2],all found to be dead
